According to US9415036B2, “Pharmaceutical composition for use in the treatment or prevention of osteoarticular diseases” (BONE THERAPEUTICS, priority 2008, dated 2016):
Several values for one entry are separate records, joined by “and”; a condition that tells them apart may be missing. Equal values may be shown once.

Experiments:
Assay type in all cases: cell-based, human
[1] = system: IL-1β; test: IL-1β detection (ELISA) in PBMC culture supernatants
Experimental: (§1) PBMCs (Peripheral blood mononuclear cells) from heparinized venous blood of healthy volunteers were isolated by Ficoll-gradient centrifugation. MNC (Mononuclear cells) were washed three times in PBS and resuspended in RPMI-1640 medium supplemented with 100 U/mL penicillin, 100 μg/mL streptomycin, and 10% heat-inactivated FBS (Fetal Bovine Serum). Cells were seeded at 100.000 cells in 96-wel plate in a total volume of 200 μL/well.
(§2) PBMC, at 100.000 cells/200 μL, were plated in 96-well microtiter plates and stimulated or not with 10 μg/mL phytohemagglutinin (PHA). Effects of hyaluronic acid “HA” (200 μg/mL) and p-aminoclonidine “A2A” (5 μM) were tested on PBMC.
MSC (Mesenchymal stromal cells) were derived from 20 to 60 mL of heparinized bone marrow (BM) obtained from the iliac crest of healthy volunteers. BM was mixed with phosphate-buffered saline (PBS, 2v:v) and layered on density gradient Ficoll solution. After centrifugation, mononuclear cells were harvested from the interface and washed twice in PBS. […]
The culture was incubated with 1 μCi/mL 3H-thymidine for 24 hours before end of culture to measure the proliferation. […] Supernatants were collected and analyzed on a beta-counter in presence of scintillation liquid. […] Levels of IL-1β from PBMC or culture supernatants were measured by Quantikine ELISA kit (R&D Systems Inc, Mineapolis, USA). […]

[2] = system: PBMC (Peripheral blood mononuclear cells); test: Proliferation assay (3H-thymidine) of PBMC
Experimental: as §1, §2
MSC (Mesenchymal stromal cells) were derived from 20 to 60 mL of heparinized bone marrow (BM) obtained from the iliac crest of healthy volunteers. BM was mixed with phosphate-buffered saline (PBS, 2v:v) and layered on density gradient Ficoll solution. After centrifugation, mononuclear cells were harvested from the interface and washed twice in PBS. Cells were resuspended in standard MEM medium supplemented with 15% FBS. The cells were plated at 2×10^6 cells/75 cm2 flasks and maintained in a 37° C. humidified atmosphere containing 5% CO2. Cells were allowed to attach for 24 hours prior an initial medium change. Cells were detached at day 10 using trypsin-EDTA solution for 1-5 min at 37° C. Then, cells were irradiated (10 minutes at 2200Ci) before seeding in 96-well for proliferative assays at 12.500 cells/well to obtain a ratio 1:8 (MSC:PBMC).
The culture was incubated with 1 μCi/mL 3H-thymidine for 24 hours before end of culture to measure the proliferation. Then, cells were washed twice with ice-cold PBS and twice with ice-cold 5% trichloroacetic acid (TCA). Finally, cells were lysed with 0.1N NaOH-0.1% Triton-X100. Supernatants were collected and analyzed on a beta-counter in presence of scintillation liquid. Results were done in cpm (“count per minute”=disintegration number of radioactive element observed in series of successive counts of one minute). IL-1β (beta) detection (By ELISA). Levels of IL-1β from PBMC or culture supernatants were measured by Quantikine ELISA kit (R&D Systems Inc, Mineapolis, USA). The minimum detectable concentration of IL-1β was estimated at 1.0 pg/mL.
The release of IL-1 beta by PBMC and the proliferation of PBMC, induced by PHA stimulation, were set as controls, and compared with the measures for PBMC treated with HA and/or A2A.

[3] = system: MSCs; test: MSCs cultured in chondrogenic medium, pellets stained with Alcian blue / Nuclear fast red; conditions: HA 200 μg/ml, A2A 5 μMol
Experimental: MSCs were culture in chondrogenic medium for 7, 14 and 21 days and 4 conditions were tested • control • A2A: 5 μMol aminoclonidine • HA: 200 μg/ml of hyaluronic acid • HA+A2A: 200 μg/ml of hyaluronic acid and 5 μMol aminoclonidine
At day 14 and 21, pellets were fixed in 10% buffered formalin for 6 hours, and washed twice in PBS. Pellets were then embedded in OCT (Sakura Finetek, Belgium). Sections were cut at a thickness of 5 μm and were stained with Alcian blue, before counterstained with Nuclear fast red (Klinipath, Belgium)
GAGs will be stained blue, while Nuclear fast red will counterstain cells nuclei in pink or red, and cytoplasm in pale pink. In brief, the procedure is 1) Stain in alcian blue solution for 30 minutes; 3) Wash in running tap water for 2 minutes; 4) Rinse in distilled water; 5) Counterstain in nuclear fast red solution for 5 minutes; 6) Wash in running tap water for 1 minute; 7) Dehydrate through 95% alcohol, and 2 changes of absolute alcohol, 3 minutes each; 8) clear in Ultraclear, a xylene substitute (Klinipath, Belgium); 9) Mount with Ultrakit mounting medium (Klinipahth, Belgium). Toluidine blue stains proteoglycan in red-purple (metachromatic staining) and the nucleus in blue (orthochromatic staining). Metachromasia, tissue elements staining a different color from the dye solution, is due to the pH, dye concentration and temperature of the basic dye. […]

[4] = basal (unstimulated) conditions

For Nc1cc(Cl)c(N=C2NCCN2)c(Cl)c1 [A2A, p-aminoclonidine], the “effect on IL-1beta secretion” value ([1]; PHA stimulated PBMC) was “totally suppressed”, the “effect on IL-1beta secretion” value [1, 4] was “no effect” and the Proliferation ([2]; PBMC stimulated with 10 μg/mL PHA, HA 200 μg/mL, A2A 5 μM, MSC:PBMC 1:8) was 16212 cpm. The “effect on PBMC proliferation” value ([2]; PHA stimulated PBMC) was “not able to inhibit”, the Proliferation ([2]; PHA stimulated PBMC, PBMC + PHA set at 100) was 101% and 100% and the “effect on PBMC proliferation” value [2, 4] was “no effect”. The Proliferation ([2]; unstimulated PBMC, HA 200 μg/mL, A2A 5 μM, MSC:PBMC 1:8) was 786 cpm, the Proliferation ([2]; unstimulated PBMC, PBMC + PHA set at 100) was 4.9% and the “matrix (mucopolysaccharides and glycosaminoglycans) content / production, Alcian blue staining” value [3] was “almost absent”.
